Molecules are shown by their SMILES.

Format in all cases: biochemical
What all share (conditions): 10 μM ATP, 60 min, ADP-GLO luminescence

In one assay the target is c-MET (Homo sapiens, UniProt P08581). The assay is described as follows: Enzymatic assay (ADP-Glo kinase reaction), c-MET. The procedure:
(§1) All the kinase reactions were performed in 5 μL using tyrosine kinase buffer with 0.2 μg/μL poly (Glu4, Tyr1) substrate, 10 μM ATP, serial dilution of the inhibitor, and incubated at room temperature for 60 min. After the indicated incubation times, 5 μL ADP-GLO™ reagent (Promega, Madison, WI) was added to the reactions and the plate was incubated at room temperature for 40 min. […] All 384-well assay plates were read using a GLOMAX™ Discover Microplate Luminometer from Promega (Madison, WI). To plot, analyze the data and calculate all kinase reaction biochemical values, both Microsoft Excel and Prism from GraphPad 7 Software (La Jolla, CA) were used.

Another assay concerns the target T1, MER (Homo sapiens, UniProt Q12866).
T1 sequence (Q12866 21-999): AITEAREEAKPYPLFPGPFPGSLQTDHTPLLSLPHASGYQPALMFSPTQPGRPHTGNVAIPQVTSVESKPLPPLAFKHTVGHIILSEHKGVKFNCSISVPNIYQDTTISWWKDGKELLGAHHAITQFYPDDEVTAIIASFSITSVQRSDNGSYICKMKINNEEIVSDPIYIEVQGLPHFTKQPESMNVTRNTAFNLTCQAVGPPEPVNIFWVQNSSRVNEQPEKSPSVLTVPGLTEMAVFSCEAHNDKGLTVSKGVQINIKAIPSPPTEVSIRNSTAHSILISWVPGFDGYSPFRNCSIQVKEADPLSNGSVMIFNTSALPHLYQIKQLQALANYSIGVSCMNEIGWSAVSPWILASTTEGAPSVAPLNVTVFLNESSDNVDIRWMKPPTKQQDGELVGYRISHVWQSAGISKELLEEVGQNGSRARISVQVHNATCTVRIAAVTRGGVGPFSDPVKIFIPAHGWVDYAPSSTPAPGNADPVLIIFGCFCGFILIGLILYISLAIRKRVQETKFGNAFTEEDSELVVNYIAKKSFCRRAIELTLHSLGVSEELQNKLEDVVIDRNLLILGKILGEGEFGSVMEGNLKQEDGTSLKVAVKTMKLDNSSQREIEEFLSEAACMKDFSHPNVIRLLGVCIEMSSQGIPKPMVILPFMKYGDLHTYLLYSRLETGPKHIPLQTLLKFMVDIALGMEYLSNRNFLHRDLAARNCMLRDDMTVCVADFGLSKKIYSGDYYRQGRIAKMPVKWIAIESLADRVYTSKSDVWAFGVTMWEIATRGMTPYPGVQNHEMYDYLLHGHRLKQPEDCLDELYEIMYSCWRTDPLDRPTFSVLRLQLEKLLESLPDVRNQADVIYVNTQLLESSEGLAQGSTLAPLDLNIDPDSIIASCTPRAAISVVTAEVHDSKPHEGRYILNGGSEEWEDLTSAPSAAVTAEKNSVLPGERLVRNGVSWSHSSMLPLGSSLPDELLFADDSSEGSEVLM
The assay is described as follows: Enzymatic assay (ADP-Glo kinase reaction), MER. The procedure: (§2) All the kinase reactions were performed in 5 μL using tyrosine kinase buffer with 0.2 μg/μL poly (Glu4, Tyr1) substrate, 10 μM ATP, serial dilution of the inhibitor, and incubated at room temperature for 60 min. After the indicated incubation times, 5 μL ADP-GLO™ reagent (Promega, Madison, WI) was added to the reactions and the plate was incubated at room temperature for 40 min. Then, 10 μL of kinase detection reagent was added and after an incubation time of 40 min, luminescence was recorded and IC50 values were determined (Table 1). All 384-well assay plates were read using a GLOMAX™ Discover Microplate Luminometer from Promega (Madison, WI). To plot, analyze the data and calculate all kinase reaction biochemical values, both Microsoft Excel and Prism from GraphPad 7 Software (La Jolla, CA) were used.
as §2, with “3).” for “1).”

The next assay concerns the target T2, AXL (Homo sapiens, UniProt P30530).
T2 sequence (P30530 26-894): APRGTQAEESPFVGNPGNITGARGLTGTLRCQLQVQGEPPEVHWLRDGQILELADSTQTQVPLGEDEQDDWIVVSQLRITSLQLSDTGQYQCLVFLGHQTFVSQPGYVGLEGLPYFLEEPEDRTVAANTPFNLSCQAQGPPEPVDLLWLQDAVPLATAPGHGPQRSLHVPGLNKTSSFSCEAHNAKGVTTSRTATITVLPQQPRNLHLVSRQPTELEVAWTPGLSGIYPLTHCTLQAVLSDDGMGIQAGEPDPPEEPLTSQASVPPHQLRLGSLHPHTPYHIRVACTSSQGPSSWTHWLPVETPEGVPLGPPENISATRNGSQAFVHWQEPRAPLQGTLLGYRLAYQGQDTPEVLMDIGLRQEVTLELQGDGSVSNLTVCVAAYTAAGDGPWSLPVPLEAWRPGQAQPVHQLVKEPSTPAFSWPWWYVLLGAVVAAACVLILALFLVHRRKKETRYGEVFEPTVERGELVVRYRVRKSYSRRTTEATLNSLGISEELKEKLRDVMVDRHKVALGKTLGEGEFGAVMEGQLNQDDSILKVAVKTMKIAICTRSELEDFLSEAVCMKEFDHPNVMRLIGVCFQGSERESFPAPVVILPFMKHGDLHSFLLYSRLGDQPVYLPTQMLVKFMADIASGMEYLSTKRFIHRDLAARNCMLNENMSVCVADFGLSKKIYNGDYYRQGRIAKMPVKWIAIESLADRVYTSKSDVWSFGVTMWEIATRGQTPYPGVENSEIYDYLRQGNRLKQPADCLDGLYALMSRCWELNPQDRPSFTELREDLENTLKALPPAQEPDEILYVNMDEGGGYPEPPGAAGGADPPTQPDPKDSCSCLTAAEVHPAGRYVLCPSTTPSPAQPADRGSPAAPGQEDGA
The assay is described as follows: Enzymatic assay (ADP-Glo kinase reaction), AXL. The procedure:
as §1

Chain of c-MET (P08581 25-1390): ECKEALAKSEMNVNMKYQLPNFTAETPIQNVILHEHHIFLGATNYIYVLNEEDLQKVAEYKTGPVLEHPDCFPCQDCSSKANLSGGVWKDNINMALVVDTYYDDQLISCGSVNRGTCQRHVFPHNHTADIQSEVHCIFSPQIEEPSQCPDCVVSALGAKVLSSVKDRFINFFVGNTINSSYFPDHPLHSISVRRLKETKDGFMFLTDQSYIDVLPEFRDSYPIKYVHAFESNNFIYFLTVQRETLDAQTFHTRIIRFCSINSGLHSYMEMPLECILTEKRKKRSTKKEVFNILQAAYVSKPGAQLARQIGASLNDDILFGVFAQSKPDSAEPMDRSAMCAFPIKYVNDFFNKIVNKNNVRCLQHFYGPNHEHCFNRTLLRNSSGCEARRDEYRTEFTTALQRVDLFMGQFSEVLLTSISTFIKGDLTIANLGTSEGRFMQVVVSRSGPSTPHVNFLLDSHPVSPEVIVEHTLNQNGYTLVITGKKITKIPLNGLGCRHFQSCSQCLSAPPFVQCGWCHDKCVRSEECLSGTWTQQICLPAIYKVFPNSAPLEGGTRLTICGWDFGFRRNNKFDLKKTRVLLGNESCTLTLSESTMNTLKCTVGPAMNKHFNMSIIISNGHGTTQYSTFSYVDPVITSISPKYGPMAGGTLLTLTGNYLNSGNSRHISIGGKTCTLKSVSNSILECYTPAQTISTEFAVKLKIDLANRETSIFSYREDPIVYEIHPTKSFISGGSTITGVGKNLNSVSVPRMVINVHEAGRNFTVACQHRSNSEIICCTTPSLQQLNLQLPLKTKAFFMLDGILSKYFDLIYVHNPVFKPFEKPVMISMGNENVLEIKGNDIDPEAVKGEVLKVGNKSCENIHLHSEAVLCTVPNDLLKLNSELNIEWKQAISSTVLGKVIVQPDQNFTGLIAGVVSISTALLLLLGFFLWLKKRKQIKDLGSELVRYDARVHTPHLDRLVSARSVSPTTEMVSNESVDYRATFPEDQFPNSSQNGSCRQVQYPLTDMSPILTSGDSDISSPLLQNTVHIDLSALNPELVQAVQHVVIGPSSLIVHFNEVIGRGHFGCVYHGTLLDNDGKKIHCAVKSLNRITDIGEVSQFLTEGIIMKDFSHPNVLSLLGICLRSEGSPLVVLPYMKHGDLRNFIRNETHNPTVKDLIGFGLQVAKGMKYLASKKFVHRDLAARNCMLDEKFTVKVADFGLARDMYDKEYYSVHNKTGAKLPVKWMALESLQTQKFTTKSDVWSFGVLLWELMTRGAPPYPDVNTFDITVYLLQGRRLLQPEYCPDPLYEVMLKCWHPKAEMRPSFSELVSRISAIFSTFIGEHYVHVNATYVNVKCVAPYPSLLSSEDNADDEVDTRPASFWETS

As to `CC(C)n1cc(C(=O)Nc2ccc(Oc3ccnc(N)c3C#CC(=O)N3CCNCC3)c(F)c2)c(=O)n(-c2ccc(F)cc2)c1=O` [Example 1, N-(4-(2-amino-3-(3-oxo-3-(piperazin-1-yl)prop-1-ynyl)pyridin-4-yloxy)-3-fluorophenyl)-3-(4-fluorophenyl)-1-isopropyl-2,4-dioxo-1,2,3,4-tetrahydropyrimidine-5-carboxamide], the half-inhibitory concentration (IC50) against c-MET, at MER and against AXL was < 10 nM throughout.
With `COCCN1CCN(C(=O)C#Cc2c(Oc3ccc(NC(=O)c4cn(C(C)C)c(=O)n(-c5ccc(F)cc5)c4=O)cc3F)ccnc2N)CC1` [Example 2, N-(4-(2-amino-3-(3-(4-(2-methoxyethyl)piperazin-1-yl)-3-oxoprop-1-ynyl)pyridin-4-yloxy)-3-fluorophenyl)-3-(4-fluorophenyl)-1-isopropyl-2,4-dioxo-1,2,3,4-teterahydropyrimidine-5-carboxamide], the IC50 against c-MET, on MER and on AXL was < 10 nM each time.
Consider `CC(C)n1cc(C(=O)Nc2ccc(Oc3ccnc(N)c3/C=C/C(=O)N3CCNCC3)c(F)c2)c(=O)n(-c2ccc(F)cc2)c1=O` [Example 3, (E)-N-(4-(2-amino-3-(3-oxo-3-(piperazin-1-yl)prop-1-enyl)pyridin-4-yloxy)-3-fluorophenyl)-3-(4-fluorophenyl)-1-isopropyl-2,4-dioxo-1,2,3,4-tetrahydropyrimidine-5-carboxamide], for which the IC50 is < 100 nM on c-MET, < 10 nM on MER and < 10 nM against AXL.
With `COCCN1CCN(C(=O)/C=C/c2c(Oc3ccc(NC(=O)c4cn(C(C)C)c(=O)n(-c5ccc(F)cc5)c4=O)cc3F)ccnc2N)CC1` [Example 4, (E)-N-(4-(2-amino-3-(3-(4-(2-methoxyethyl)piperazin-1-yl)-3-oxoprop-1-enyl)pyridin-4-yloxy)-3-fluorophenyl)-3-(4-fluorophenyl)-1-isopropyl-2,4-dioxo-1,2,3,4-tetrahydropyrimidine-5-carboxamide], the IC50 against c-MET, at MER and against AXL was < 10 nM each time.
For the compound `CC(C)n1cc(C(=O)Nc2ccc(Oc3ccnc(N)c3C#N)c(F)c2)c(=O)n(-c2ccc(F)cc2)c1=O` [Example 5, N-(4-(2-amino-3-cyanopyridin-4-yloxy)-3-fluorophenyl)-3-(4-fluorophenyl)-1-isopropyl-2,4-dioxo-1,2,3,4-tetrahydropyrimidine-5-carboxamide], the half-inhibitory concentration (IC50) on c-MET, on MER and against AXL was < 10 nM each time.
As for `CC(C)n1cc(C(=O)Nc2ccc(Oc3ccnc(N)c3Cl)c(F)c2)c(=O)n(-c2ccc(F)cc2)c1=O` [Example 6, N-(4-(2-amino-3-chloropyridin-4-yloxy)-3-fluorophenyl)-3-(4-fluorophenyl)-1-isopropyl-2,4-dioxo-1,2,3,4-tetrahydropyrimidine-5-carboxamide], the half-inhibitory concentration (IC50) against MER was < 100 nM.
For `CC(C)n1cc(C(=O)Nc2ccc(Oc3ccnc(N)c3-c3cnn(C)c3)c(F)c2)c(=O)n(-c2ccc(F)cc2)c1=O` [Example 7], the IC50 against c-MET was < 10 nM; against MER, < 100 nM; on AXL, < 10 nM.
Regarding `CC(C)n1cc(C(=O)Nc2ccc(Oc3ccnc(N)c3C#Cc3ccccn3)c(F)c2)c(=O)n(-c2ccc(F)cc2)c1=O` [Example 9, N-(4-(2-amino-3-(pyridin-2-ylethnyl)pyridin-4-yloxy)-3-fluorophenyl)-3-(4-fluorophenyl)-1-isopropyl-2,4-dioxo-1,2,3,4-tetrahydropyrimidine-5-carboxamide], the values for the 50% inhibitory concentration (IC50) on c-MET, against MER and against AXL were < 10 nM, < 100 nM and < 10 nM, respectively.
As for `CC(C)n1cc(C(=O)Nc2ccc(Oc3ccnc(N)c3-c3ccc(Oc4ccccc4)cc3)c(F)c2)c(=O)n(-c2ccc(F)cc2)c1=O` [Example 10], the IC50 against c-MET is < 10000 nM; on MER, < 10 nM; against AXL, < 100 nM.
For `Cc1noc(C)c1-c1c(Oc2ccc(NC(=O)c3cn(C(C)C)c(=O)n(-c4ccc(F)cc4)c3=O)cc2F)ccnc1N` [Example 11] the same measures were < 10000 nM, < 10 nM and < 100 nM.
On the same counts, the results for `CCCn1cc(-c2c(Oc3ccc(NC(=O)c4cn(C(C)C)c(=O)n(-c5ccc(F)cc5)c4=O)cc3F)ccnc2N)cn1` [Example 12, N-(4-(2-amino-3-(1-propyl-1H-pyrazol-4-yl)pyridine-4-yloxy)-3-fluorophenyl)-3-(4-fluorophenyl)-1-isopropyl-2,4-dioxo-1,2,3,4-tetrahydropyrimidine-5-carboxamide] are < 10000 nM, < 1000 nM and < 1000 nM.
On the same counts, the results for `CCCn1cc(C#Cc2c(Oc3ccc(NC(=O)c4cn(C(C)C)c(=O)n(-c5ccc(F)cc5)c4=O)cc3F)ccnc2N)cn1` [Example 13, N-(4-(2-amino-3-((1-propyl-1H-pyrazol-4-yl)ethynyl)pyridin-4-yloxy)-3-fluorophenyl)-3-(4-fluorophenyl)-1-isopropyl-2,4-dioxo-1,2,3,4-tetrahydropyrimidine-5-carboxamide] are < 1000 nM, < 10 nM and < 10 nM.
For `CC(C)n1cc(C(=O)Nc2ccc(Oc3ccnc(N)c3C#CCN3CCOCC3)c(F)c2)c(=O)n(-c2ccc(F)cc2)c1=O` [Example 24, N-(4-(2-amino-3-(3-morpholinoprop-1-ynyl)pyridin-4-yloxy)-3-fluorophenyl)-3-(4-fluorophenyl)-1-isopropyl-2,4-dioxo-1,2,3,4-tetrahydropyrimidine-5-carboxamide], the 50% inhibitory concentration (IC50) on c-MET and against AXL was < 10 nM in each case.

(Values after patent US20250171426A1, “PYRIMIDINEDIONE-BASED COMPOUNDS AS AXL, C-MET, AND MER INHIBITORS AND METHODS OF USE THEREOF” (CMG Pharmaceutical Co., Ltd., priority 2022, published 2025).)
